# Test results reported in patent US12612599B2, “Compositions and methods for microglia replacement therapy” (Savanna Biotherapeutics, Inc., priority 2018, dated 2026).
# Test system: bone marrow derived macrophages (BMDMs) expressing human CSF1R variants
# Assay: In vitro survival assay of retrovirally transduced bone marrow derived macrophages expressing CSF1R variants under PLX3397
# Format: cell-based, mouse
# Conditions: PLX3397 100 nM, 48 hours, CellTiter-Glo 2; compared to cells expressing WT CSF1R; FIG. 23
row,Substance,ratio between number of cells following treatment with CSF1R inhibitor (PLX-3397) + CSF1 and number of cells following complete deprivation of CSF1
1,"D796A: human CSF1R variant, SEQ ID NO: 12",higher ratio than cells expressing WT CSF1R
2,"G795A: human CSF1R variant, SEQ ID NO: 10",higher ratio than cells expressing WT CSF1R
3,"M637L: human CSF1R variant, SEQ ID NO: 11",higher ratio than cells expressing WT CSF1R
4,"Y546F: human CSF1R variant, SEQ ID NO: 14",higher ratio than cells expressing WT CSF1R
